Data reported in ChEMBL document CHEMBL3885861, “Open TG-GATES”.

Species: Rattus norvegicus
Assay: Open TG-GATES - Regimen: Daily Repeat
Format: toxicity, organism-based, Sprague-Dawley
Design: regimen Daily Repeat, gender Male, age 6 weeks
Details: in vivo, po, 6 mg/kg, route gavage, dose level Low; for APTT / Bas / Eos / Fbg / Hb / Ht / Lym / MCH / MCHC / MCV / Mono / Neu / PT / Plat / RBC / Ret / WBC: tissue Blood; for LIVER: tissue Liver; for A/G / ALP / ALT / AST / BUN / CRE / Ca / Cl / DBIL / GLC / IP / K / LDH / Na / PL / RALB / TBIL / TC / TG / TP / gamma-GTP: tissue Plasma

SMILES: O=[N+]([O-])c1ccc(O)c([N+](=O)[O-])c1 [2,4-DINITROPHENOL]
- TERMINAL_BW (72 h, time 3 day): 247 g
- APTT (72 h, time 3 day): 16.5 s
- Bas (72 h, time 3 day): 0%
- Eos (72 h, time 3 day): 1%
- Fbg (72 h, time 3 day): 280.8 mg/dL
- Hb (72 h, time 3 day): 13.5 g/dL
- Ht (72 h, time 3 day): 39.7%
- Lym (72 h, time 3 day): 70%
- MCH (72 h, time 3 day): 21.5 pg
- MCHC (72 h, time 3 day): 34%
- MCV (72 h, time 3 day): 63.2 fL
- Mono (72 h, time 3 day): 9.4%
- Neu (72 h, time 3 day): 19.4%
- PT (72 h, time 3 day): 11.4 s
- Plat (72 h, time 3 day): 143.8 x10_4/uL
- RBC (72 h, time 3 day): 628 x10_4/ul
- Ret (72 h, time 3 day): 6.1%
- WBC (72 h, time 3 day): 100 x10_2/uL
- LIVER (72 h, time 3 day): 12.5 g
- A/G (72 h, time 3 day): 2.3
- ALP (72 h, time 3 day): 1318.2 IU/L
- ALT (72 h, time 3 day): 36 IU/L
- AST (72 h, time 3 day): 61.6 IU/L
- BUN (72 h, time 3 day): 18.8 mg/dL
- CRE (72 h, time 3 day): 0.4 mg/dL
- Ca (72 h, time 3 day): 11.6 mg/dL
- Cl (72 h, time 3 day): 104.4 meq/L
- DBIL (72 h, time 3 day): 0.012 mg/dL
- GLC (72 h, time 3 day): 190 mg/dL
- IP (72 h, time 3 day): 7.9 mg/dL
- K (72 h, time 3 day): 4.9 meq/L
- LDH (72 h, time 3 day): 110.2 IU/L
- Na (72 h, time 3 day): 137.6 meq/L
- PL (72 h, time 3 day): 165.2 mg/dL
- RALB (72 h, time 3 day): 4 g/dL
- TBIL (72 h, time 3 day): 0.032 mg/dL
- TC (72 h, time 3 day): 89.2 mg/dL
- TG (72 h, time 3 day): 137.2 mg/dL
- TP (72 h, time 3 day): 5.7 g/dL
- gamma-GTP (72 h, time 3 day): 0.6 IU/L
- TERMINAL_BW ([…], time 7 day): 282.7 g
- TERMINAL_BW ([…], time 14 day): 318.6 g
- TERMINAL_BW ([…], time 28 day): 445.6 g
- APTT ([…], time 7 day): 16.4 s
- Bas ([…], time 7 day): 0%
- Eos ([…], time 7 day): 0.8%
- Fbg ([…], time 7 day): 264.6 mg/dL
- Hb ([…], time 7 day): 13.1 g/dL
- Ht ([…], time 7 day): 38.6%
- Lym ([…], time 7 day): 81.6%
- MCH ([…], time 7 day): 21.3 pg
- MCHC ([…], time 7 day): 33.9%
- MCV ([…], time 7 day): 62.6 fL
- Mono ([…], time 7 day): 4.2%
- Neu ([…], time 7 day): 13.6%
- PT ([…], time 7 day): 11.5 s
- Plat ([…], time 7 day): 137.2 x10_4/uL
- RBC ([…], time 7 day): 617.8 x10_4/ul
- Ret ([…], time 7 day): 5.3%
- WBC ([…], time 7 day): 117 x10_2/uL
- APTT ([…], time 14 day): 17.1 s
- Bas ([…], time 14 day): 0%
- Eos ([…], time 14 day): 1%
- Fbg ([…], time 14 day): 255.8 mg/dL
- Hb ([…], time 14 day): 14.1 g/dL
- Ht ([…], time 14 day): 41.5%
- Lym ([…], time 14 day): 76.4%
- MCH ([…], time 14 day): 20.9 pg
- MCHC ([…], time 14 day): 33.9%
- MCV ([…], time 14 day): 61.7 fL
- Mono ([…], time 14 day): 6.4%
- Neu ([…], time 14 day): 16.4%
- PT ([…], time 14 day): 11.8 s
- Plat ([…], time 14 day): 119.2 x10_4/uL
- RBC ([…], time 14 day): 671.8 x10_4/ul
- Ret ([…], time 14 day): 3.9%
- WBC ([…], time 14 day): 134.2 x10_2/uL
- APTT ([…], time 28 day): 16.5 s
- Bas ([…], time 28 day): 0%
- Eos ([…], time 28 day): 1.2%
- Fbg ([…], time 28 day): 282.4 mg/dL
- Hb ([…], time 28 day): 14.9 g/dL
- Ht ([…], time 28 day): 43.9%
- Lym ([…], time 28 day): 76.6%
- MCH ([…], time 28 day): 19.6 pg
- MCHC ([…], time 28 day): 33.9%
- MCV ([…], time 28 day): 57.8 fL
- Mono ([…], time 28 day): 5.6%
- Neu ([…], time 28 day): 16.8%
- PT ([…], time 28 day): 11.8 s
- Plat ([…], time 28 day): 121.2 x10_4/uL
- RBC ([…], time 28 day): 759.4 x10_4/ul
- Ret ([…], time 28 day): 2.2%
- WBC ([…], time 28 day): 117.4 x10_2/uL
- LIVER ([…], time 7 day): 13.1 g
- LIVER ([…], time 14 day): 13.9 g
- LIVER ([…], time 28 day): 20 g
- A/G ([…], time 7 day): 2.3
- ALP ([…], time 7 day): 1599.8 IU/L
- ALT ([…], time 7 day): 36.8 IU/L
- AST ([…], time 7 day): 66 IU/L
- BUN ([…], time 7 day): 17.6 mg/dL
- CRE ([…], time 7 day): 0.3 mg/dL
- Ca ([…], time 7 day): 11.4 mg/dL
- Cl ([…], time 7 day): 104.8 meq/L
- DBIL ([…], time 7 day): 0.012 mg/dL
- GLC ([…], time 7 day): 188.2 mg/dL
- IP ([…], time 7 day): 7.4 mg/dL
- K ([…], time 7 day): 4.5 meq/L
- LDH ([…], time 7 day): 115.4 IU/L
- Na ([…], time 7 day): 140.8 meq/L
- PL ([…], time 7 day): 138.6 mg/dL
- RALB ([…], time 7 day): 3.9 g/dL
- TBIL ([…], time 7 day): 0.03 mg/dL
- TC ([…], time 7 day): 74.2 mg/dL
- TG ([…], time 7 day): 121.8 mg/dL
- TP ([…], time 7 day): 5.6 g/dL
- gamma-GTP ([…], time 7 day): 1 IU/L
- A/G ([…], time 14 day): 2.1
- ALP ([…], time 14 day): 1262 IU/L
- ALT ([…], time 14 day): 34.8 IU/L
- AST ([…], time 14 day): 66.2 IU/L
- BUN ([…], time 14 day): 18.8 mg/dL
- CRE ([…], time 14 day): 0.4 mg/dL
- Ca ([…], time 14 day): 11.1 mg/dL
- Cl ([…], time 14 day): 106.2 meq/L
- DBIL ([…], time 14 day): 0.01 mg/dL
- GLC ([…], time 14 day): 184.6 mg/dL
- IP ([…], time 14 day): 6.8 mg/dL
- K ([…], time 14 day): 4.7 meq/L
- LDH ([…], time 14 day): 114.6 IU/L
- Na ([…], time 14 day): 136.8 meq/L
- PL ([…], time 14 day): 129.4 mg/dL
- RALB ([…], time 14 day): 3.8 g/dL
- TBIL ([…], time 14 day): 0.016 mg/dL
- TC ([…], time 14 day): 62.4 mg/dL
- TG ([…], time 14 day): 125.8 mg/dL
- TP ([…], time 14 day): 5.7 g/dL
- gamma-GTP ([…], time 14 day): 0 IU/L
- A/G ([…], time 28 day): 1.9
- ALP ([…], time 28 day): 1091.6 IU/L
- ALT ([…], time 28 day): 33 IU/L
- AST ([…], time 28 day): 63.6 IU/L
- BUN ([…], time 28 day): 20.2 mg/dL
- CRE ([…], time 28 day): 0.5 mg/dL
- Ca ([…], time 28 day): 11 mg/dL
- Cl ([…], time 28 day): 105.2 meq/L
- DBIL ([…], time 28 day): 0.01 mg/dL
- GLC ([…], time 28 day): 203 mg/dL
- IP ([…], time 28 day): 7.3 mg/dL
- K ([…], time 28 day): 4.3 meq/L
- LDH ([…], time 28 day): 144.4 IU/L
- Na ([…], time 28 day): 140.6 meq/L
- PL ([…], time 28 day): 150 mg/dL
- RALB ([…], time 28 day): 3.9 g/dL
- TBIL ([…], time 28 day): 0.03 mg/dL
- TC ([…], time 28 day): 72.6 mg/dL
- TG ([…], time 28 day): 199.8 mg/dL
- TP ([…], time 28 day): 6 g/dL
- gamma-GTP ([…], time 28 day): 0.8 IU/L
